Results reported in patent US11845752B2, “Substituted imidazo[1,5-a]pyrazines for the treatment of hepatitis B” (ALIGOS THERAPEUTICS, INC., priority 2020, dated 2023).
Read-outs that look alike come from different tables or passages of the source.

Test system: HBV
Assay: HBV-DNA antiviral assay using HepG2.117 cells (intracellular HBV DNA by qPCR)
Type: cell-based, HBV genotype D
Details: HBV DNA inhibition, 3 days incubation, read-out: EC50
How it was run: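 HepG2.117 cells (stably integrated genotype D HBV, Tet-off) seeded without doxycycline to induce pgRNA, then treated next day with 9 concentrations (4-fold dilutions, 2% DMSO) for 3 days at 37 °C. Intracellular HBV DNA quantified by qPCR against standard curve, viability by ATP content; inhibition relative to DMSO control, EC50/EC90/CC50 by non-linear regression.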

[1] = Hepatitis B virus, HepG2.117, 72 h

Row | SMILES | EC50 [1] [nM] | EC50 [nM]
1 | CC1Cn2c(c(C(=O)NCc3ccccc3-c3cn(C)cn3)n(-c3ccc(OC4CC4)cc3)c2=O)CN1C(=O)c1ccc(Br)c(Cl)c1 (single isomer, unassigned) [Compound 18a, 7-(4-bromo-3-chloro-benzoyl)-2-[4-(cyclopropoxy)phenyl]-6-methyl-N-[[2-(1-methylimidazol-4-yl)phenyl]methyl]-3-oxo-6,8-dihydro-5H-imidazo[1,5-a]pyrazine-1-carboxamide] | 50 to 500 | –
2 | CC1Cn2c(c(C(=O)NCc3ccccc3-c3cn(C)cn3)n(-c3ccc(OC4CC4)cc3)c2=O)CN1C(=O)c1ccc(Br)c(Cl)c1 (single isomer, unassigned) [Compound 18b, 7-(4-bromo-3-chloro-benzoyl)-2-[4-(cyclopropoxy)phenyl]-6-methyl-N-[[2-(1-methylimidazol-4-yl)phenyl]methyl]-3-oxo-6,8-dihydro-5H-imidazo[1,5-a]pyrazine-1-carboxamide] | – | < 50
3 | CC1Cn2c(c(C(=O)NCc3ccccc3-n3cc(N)cn3)n(-c3ccc(OC4CC4)cc3)c2=O)CN1C(=O)c1ccc(Br)c(Cl)c1 (single isomer, unassigned) [Compound 19a] | – | 500 to 5000
4 | CC1Cn2c(c(C(=O)NCc3ccccc3-n3cc(N)cn3)n(-c3ccc(OC4CC4)cc3)c2=O)CN1C(=O)c1ccc(Br)c(Cl)c1 (single isomer, unassigned) [Compound 19b] | – | 50 to 500
5 | C#Cc1cc(C(=O)N2Cc3c(C(=O)NCc4ccccc4-c4ccncn4)n(-c4ccc(OC5CC5)cc4)c(=O)n3CC2C)ccc1Br (single isomer, unassigned) [Compound 20a] | – | 500 to 5000
6 | C#Cc1cc(C(=O)N2Cc3c(C(=O)NCc4ccccc4-c4ccncn4)n(-c4ccc(OC5CC5)cc4)c(=O)n3CC2C)ccc1Br (single isomer, unassigned) [Compound 20b] | – | 50 to 500
7 | CC1Cn2c(c(C(=O)NCc3ccccc3-c3ncccn3)n(-c3ccc(N4CCN(C)CC4)cc3)c2=O)CN1C(=O)c1ccc(Br)c(Cl)c1 (single isomer, unassigned) [Compound 21a] | < 50 | –
8 | CC1Cn2c(c(C(=O)NCc3ccccc3-c3ncccn3)n(-c3ccc(N4CCN(C)CC4)cc3)c2=O)CN1C(=O)c1ccc(Br)c(Cl)c1 (single isomer, unassigned) [Compound 21b] | – | 50 to 500
9 | CC1Cn2c(c(C(=O)NCc3ccccc3-c3ccn(C)n3)n(-c3ccc(OC4CC4)cc3)c2=O)CN1C(=O)c1ccc(Br)c(Cl)c1 (single isomer, unassigned) [Compound 22a] | 50 to 500 | –
10 | CC1Cn2c(c(C(=O)NCc3ccccc3-c3ccn(C)n3)n(-c3ccc(OC4CC4)cc3)c2=O)CN1C(=O)c1ccc(Br)c(Cl)c1 (single isomer, unassigned) [Compound 22b] | – | < 50
11 | CC1Cn2c(c(C(=O)NCc3ccccc3-c3cccc(N)n3)n(-c3ccc(OC4CC4)cc3)c2=O)CN1C(=O)c1ccc(Br)c(Cl)c1 (single isomer, unassigned) [Compound 23a] | 50 to 500 | –
12 | CC1Cn2c(c(C(=O)NCc3ccccc3-c3cccc(N)n3)n(-c3ccc(OC4CC4)cc3)c2=O)CN1C(=O)c1ccc(Br)c(Cl)c1 (single isomer, unassigned) [Compound 23b] | – | < 50
13 | CC1Cn2c(c(C(=O)NCc3c(F)cccc3-n3cccn3)n(-c3ccc(OC4CC4)cc3)c2=O)CN1C(=O)c1ccc(Br)c(Cl)c1 (single isomer, unassigned) [Compound 24a] | 50 to 500 | –
14 | CC1Cn2c(c(C(=O)NCc3c(F)cccc3-n3cccn3)n(-c3ccc(OC4CC4)cc3)c2=O)CN1C(=O)c1ccc(Br)c(Cl)c1 (single isomer, unassigned) [Compound 24b] | – | < 50
15 | CC1Cn2c(c(C(=O)NCc3c(F)cccc3-n3cccn3)n(-c3ccc(OC4CC4)cc3)c2=O)CN1C(=O)c1ccc(Br)c(C(F)(F)F)c1 (single isomer, unassigned) [Compound 25a] | 50 to 500 | –
16 | CC1Cn2c(c(C(=O)NCc3c(F)cccc3-n3cccn3)n(-c3ccc(OC4CC4)cc3)c2=O)CN1C(=O)c1ccc(Br)c(C(F)(F)F)c1 (single isomer, unassigned) [Compound 25b] | – | < 50
17 | CNc1ccnc(-c2ccccc2CNC(=O)c2c3n(c(=O)n2-c2ccc(OC4CC4)cc2)CC(C)N(C(=O)c2ccc(Br)c(Cl)c2)C3)n1 (single isomer, unassigned) [Compound 26a] | < 50 | –
18 | CC1Cn2c(c(C(=O)NCc3ccccc3-c3cccc(N)n3)n(-c3ccc(OC4CC4)cc3)c2=O)CN1C(=O)c1ccc(Br)c(C(F)(F)F)c1 (single isomer, unassigned) [Compound 27a] | < 50 | –
19 | CC1Cn2c(c(C(=O)NCc3ccccc3-c3cccc(N)n3)n(-c3ccc(OC4CC4)cc3)c2=O)CN1C(=O)c1ccc(Br)c(C(F)(F)F)c1 (single isomer, unassigned) [Compound 27b] | – | < 50
20 | CC1Cn2c(c(C(=O)NCc3ccccc3-c3nccc(N)n3)n(-c3ccc(OC4CC4)cc3)c2=O)CN1C(=O)c1ccc(Br)c(C(F)(F)F)c1 (single isomer, unassigned) [Compound 29a] | < 50 | –
21 | CC1Cn2c(c(C(=O)NCc3ccccc3-c3nccc(N)n3)n(-c3ccc(OC4CC4)cc3)c2=O)CN1C(=O)c1ccc(Br)c(C(F)(F)F)c1 (single isomer, unassigned) [Compound 29b] | – | < 50

Row | SMILES | EC50 [1] [nM] | EC50 [nM]
22 | CC1Cn2c(c(C(=O)NCc3ccccc3-c3nccc(N)n3)n(-c3ccc(OC4CC4)cc3)c2=O)CN1C(=O)c1ccc(Br)c(Cl)c1 (single isomer, unassigned) [Compound 30a] | 50 to 500 | –
23 | CC1Cn2c(c(C(=O)NCc3ccccc3-c3nccc(N)n3)n(-c3ccc(OC4CC4)cc3)c2=O)CN1C(=O)c1ccc(Br)c(Cl)c1 (single isomer, unassigned) [Compound 30b] | – | < 50
24 | CC1Cn2c(c(C(=O)NCc3c(F)cccc3-c3nccc(N)n3)n(-c3ccc(OC4CC4)cc3)c2=O)CN1C(=O)c1ccc(Br)c(Cl)c1 (single isomer, unassigned) [Compound 31a] | 50 to 500 | –
25 | CC1Cn2c(c(C(=O)NCc3c(F)cccc3-c3nccc(N)n3)n(-c3ccc(OC4CC4)cc3)c2=O)CN1C(=O)c1ccc(Br)c(Cl)c1 (single isomer, unassigned) [Compound 31b] | – | < 50
26 | CC1Cn2c(c(C(=O)NCc3c(F)cccc3-c3nccc(N)n3)n(-c3ccc(OC4CC4)cc3)c2=O)CN1C(=O)c1ccc(Br)c(C(F)(F)F)c1 (single isomer, unassigned) [Compound 32a] | < 50 | –
27 | CC1Cn2c(c(C(=O)NCc3c(F)cccc3-c3nccc(N)n3)n(-c3ccc(OC4CC4)cc3)c2=O)CN1C(=O)c1ccc(Br)c(C(F)(F)F)c1 (single isomer, unassigned) [Compound 32b] | – | < 50
28 | Cc1nnc(-c2cccc(F)c2CNC(=O)c2c3n(c(=O)n2-c2ccc(OC4CC4)cc2)CC(C)N(C(=O)c2ccc(Br)c(C(F)(F)F)c2)C3)o1 (single isomer, unassigned) [Compound 33a] | 50 to 500 | –
29 | Cc1nnc(-c2cccc(F)c2CNC(=O)c2c3n(c(=O)n2-c2ccc(OC4CC4)cc2)CC(C)N(C(=O)c2ccc(Br)c(C(F)(F)F)c2)C3)o1 (single isomer, unassigned) [Compound 33b] | – | < 50
30 | CC1Cn2c(c(C(=O)NCc3ccccc3-c3ccccn3)n(-c3ccc(OC4CC4)cc3)c2=O)CN1C(=O)c1ccc(Br)c(C(F)(F)F)c1 (single isomer, unassigned) [Compound 34a] | < 50 | –
31 | CC1Cn2c(c(C(=O)NCc3c(F)cccc3-c3cccc(N)n3)n(-c3ccc(OC4CC4)cc3)c2=O)CN1C(=O)c1ccc(Br)c(Cl)c1 (single isomer, unassigned) [Compound 35a] | 50 to 500 | –
32 | CC1Cn2c(c(C(=O)NCc3c(F)cccc3-c3cccc(N)n3)n(-c3ccc(OC4CC4)cc3)c2=O)CN1C(=O)c1ccc(Br)c(Cl)c1 (single isomer, unassigned) [Compound 35b] | – | < 50
33 | CC1Cn2c(c(C(=O)NCc3c(F)cccc3-c3cccc(N)n3)n(-c3ccc(OC4CC4)cc3)c2=O)CN1C(=O)c1ccc(Br)c(C(F)(F)F)c1 (single isomer, unassigned) [Compound 36a] | < 50 | –
34 | CC1Cn2c(c(C(=O)NCc3c(F)cccc3-c3cccc(N)n3)n(-c3ccc(OC4CC4)cc3)c2=O)CN1C(=O)c1ccc(Br)c(C(F)(F)F)c1 (single isomer, unassigned) [Compound 36b] | – | < 50
35 | COc1nccc(-c2ccccc2CNC(=O)c2c3n(c(=O)n2-c2ccc(OC4CC4)cc2)CC(C)N(C(=O)c2ccc(Br)c(Cl)c2)C3)n1 (single isomer, unassigned) [Compound 37a] | 50 to 500 | –
36 | COc1nccc(-c2ccccc2CNC(=O)c2c3n(c(=O)n2-c2ccc(OC4CC4)cc2)CC(C)N(C(=O)c2ccc(Br)c(Cl)c2)C3)n1 (single isomer, unassigned) [Compound 37b] | – | < 50
37 | COc1nccc(-c2ccccc2CNC(=O)c2c3n(c(=O)n2-c2ccc(OC4CC4)cc2)CC(C)N(C(=O)c2ccc(Br)c(C(F)(F)F)c2)C3)n1 (single isomer, unassigned) [Compound 38a] | < 50 | –
38 | COc1nccc(-c2ccccc2CNC(=O)c2c3n(c(=O)n2-c2ccc(OC4CC4)cc2)CC(C)N(C(=O)c2ccc(Br)c(C(F)(F)F)c2)C3)n1 (single isomer, unassigned) [Compound 38b] | – | < 50
39 | CNc1cc(-c2ccccc2CNC(=O)c2c3n(c(=O)n2-c2ccc(OC4CC4)cc2)CC(C)N(C(=O)c2ccc(Br)c(C(F)(F)F)c2)C3)ncn1 (single isomer, unassigned) [Compound 40a] | < 50 | –
40 | CNc1cc(-c2ccccc2CNC(=O)c2c3n(c(=O)n2-c2ccc(OC4CC4)cc2)CC(C)N(C(=O)c2ccc(Br)c(C(F)(F)F)c2)C3)ncn1 (single isomer, unassigned) [Compound 40b] | – | < 50
41 | CC1Cn2c(c(C(=O)NCc3ccccc3-c3cc(N)cnn3)n(-c3ccc(OC4CC4)cc3)c2=O)CN1C(=O)c1ccc(Br)c(Cl)c1 (single isomer, unassigned) [Compound 42a] | – | 500 to 5000
